Patent publication US7855166B2, “Sulfonylamino(thio)carbonyl compounds” (Bayer Cropscience GmbH, priority 2005, dated 2010)

Key:
[1] = test system: weed plants such as Sinapis alba, Chrysanthemum segetum, Avena sativa, Stellaria media, Echinochloa crus-galli, Lolium multiflorum, Setaria viridis, Abutilon …; test: Pre-emergence effect on weeds (greenhouse pot test, visual scoring); type: in vivo; settings: applied pre-emergence at a rate of 0.3 kg or less of active substance per hectare; scored after 3 to 4 weeks in comparison to untreated controls
[2] = test system: weed plants such as Sinapis alba, Echinochloa crus-galli, Lolium multiflorum, Chrysanthemum segetum, Setaria viridis, Abutilon theophrasti, Amaranthus …; test: Post-emergence effect on weeds (greenhouse pot test, visual scoring); type: in vivo; settings: applied post-emergence (three-leaf stage) at a rate of 0.3 kg or less of active substance per hectare; scored after about 3 to 4 weeks in comparison to untreated controls

Q: With `COc1nn(C(=O)NS(=O)(=O)c2c(I)cccc2OC(C)C(F)(F)F)c(=O)n1C` (stereo not shown) [Compound 1.522] as the molecule, how does the “herbicidal action against weed plants (visual scoring of plant damage or emergence damage)” value [1] read?
A: very good herbidical action

Q: And the “herbicidal action against weed plants (effect scored visually)” value [2]?
A: very good herbicidal action

Q: For `CCCOc1nn(C(=O)NS(=O)(=O)c2c(OC)ccc(Cl)c2I)c(=O)n1C` [Compound 1.818], which “herbicidal action against weed plants (visual scoring of plant damage or emergence damage)” value [1] is on record?
A: very good herbidical action

Q: And the “herbicidal action against weed plants (effect scored visually)” value [2]?
A: very good herbicidal action

Q: With `CCCc1ccc(S(=O)(=O)NC(=O)n2nc(OCC)n(C)c2=O)c(I)c1` [Compound 1.877] as the molecule, how does the “herbicidal action against weed plants (visual scoring of plant damage or emergence damage)” value [1] read?
A: very good herbidical action

Q: And the “herbicidal action against weed plants (effect scored visually)” value [2]?
A: very good herbicidal action

Q: For `CC(C)Oc1cccc(I)c1S(=O)(=O)NC(=O)n1nc(OC(C)C)n(C)c1=O` [Compound 1.256], which “herbicidal action against weed plants (visual scoring of plant damage or emergence damage)” value [1] is on record?
A: very good herbidical action

Q: What about the “herbicidal action against weed plants (effect scored visually)” value [2] of the same molecule?
A: very good herbicidal action

Q: What does the source list for `CCCCc1ccc(S(=O)(=O)NC(=O)n2nc(OCCC)n(C)c2=O)c(I)c1` [Compound 1.884]?
A: herbicidal action against weed plants (visual scoring of plant damage or emergence damage) [1]: very good herbidical action; herbicidal action against weed plants (effect scored visually) [2]: very good herbicidal action

Q: Which results are given for `COc1nn(C(=O)NS(=O)(=O)c2c(I)cccc2OS(=O)(=O)N(C)C)c(=O)n1C1CC1` [Compound 1.754]?
A: herbicidal action against weed plants (visual scoring of plant damage or emergence damage) [1]: very good herbidical action; herbicidal action against weed plants (effect scored visually) [2]: very good herbicidal action

Q: Which results are given for `CCCOc1nn(C(=O)NS(=O)(=O)c2c(Cl)cc(C(F)(F)F)cc2I)c(=O)n1C` [Compound 1.844]?
A: herbicidal action against weed plants (visual scoring of plant damage or emergence damage) [1]: very good herbidical action; herbicidal action against weed plants (effect scored visually) [2]: very good herbicidal action

Q: How did the “herbicidal action against weed plants (visual scoring of plant damage or emergence damage)” value [1] turn out when `CCCOc1nn(C(=O)NS(=O)(=O)c2c(I)cccc2OCC(F)F)c(=O)n1C` [Compound 1.505] was run?
A: very good herbidical action

Q: What about the “herbicidal action against weed plants (effect scored visually)” value [2] of the same molecule?
A: very good herbicidal action

Q: Which “herbicidal action against weed plants (visual scoring of plant damage or emergence damage)” value [1] does the source give for `CCCOc1nn(C(=O)NS(=O)(=O)c2ccc(C)c(F)c2I)c(=O)n1C1CC1` [Compound 1.861] here?
A: very good herbidical action

Q: And the “herbicidal action against weed plants (effect scored visually)” value [2]?
A: very good herbicidal action

Q: What does the source list for `COc1nn(C(=O)NS(=O)(=O)c2cc(C(F)(F)F)ccc2I)c(=O)n1C1CC1` [Compound 1.839]?
A: herbicidal action against weed plants (visual scoring of plant damage or emergence damage) [1]: very good herbidical action; herbicidal action against weed plants (effect scored visually) [2]: very good herbicidal action

Q: For `CCCOc1nn(C(=O)NS(=O)(=O)c2ccc(Cl)cc2I)c(=O)n1C1CC1` [Compound 1.875], which “herbicidal action against weed plants (visual scoring of plant damage or emergence damage)” value [1] is on record?
A: very good herbidical action

Q: What about the “herbicidal action against weed plants (effect scored visually)” value [2] of the same molecule?
A: very good herbicidal action

Q: With `CCCOc1nn(C(=O)NS(=O)(=O)c2cc(C(F)(F)F)ccc2I)c(=O)n1C1CC1` [Compound 1.841] as the molecule, how does the “herbicidal action against weed plants (visual scoring of plant damage or emergence damage)” value [1] read?
A: very good herbidical action

Q: And the “herbicidal action against weed plants (effect scored visually)” value [2]?
A: very good herbicidal action

Q: With `CCCc1ccc(S(=O)(=O)NC(=O)n2nc(OC)n(C)c2=O)c(I)c1` [Compound 1.876] as the molecule, how does the “herbicidal action against weed plants (visual scoring of plant damage or emergence damage)” value [1] read?
A: very good herbidical action

Q: And the “herbicidal action against weed plants (effect scored visually)” value [2]?
A: very good herbicidal action

Q: For `COc1cccc(I)c1S(=O)(=O)NC(=O)n1nc(OC)n(C2CC2)c1=O` [Compound 1.198], which “herbicidal action against weed plants (visual scoring of plant damage or emergence damage)” value [1] is on record?
A: very good herbidical action

Q: What about the “herbicidal action against weed plants (effect scored visually)” value [2] of the same molecule?
A: very good herbicidal action

Q: `CCCc1ccc(S(=O)(=O)NC(=O)n2nc(OC)n(C3CC3)c2=O)c(I)c1` [Compound 1.880] was tested. Which “herbicidal action against weed plants (visual scoring of plant damage or emergence damage)” value [1] did it give?
A: very good herbidical action

Q: What about the “herbicidal action against weed plants (effect scored visually)” value [2] of the same molecule?
A: very good herbicidal action

Q: For `COc1nn(C(=O)NS(=O)(=O)c2ccc(Cl)cc2I)c(=O)n1C1CC1` [Compound 1.873], which “herbicidal action against weed plants (visual scoring of plant damage or emergence damage)” value [1] is on record?
A: very good herbidical action

Q: What about the “herbicidal action against weed plants (effect scored visually)” value [2] of the same molecule?
A: very good herbicidal action

Q: With `CCCOc1nn(C(=O)NS(=O)(=O)c2c(I)cccc2OC(C)C)c(=O)n1C1CC1` [Compound 1.264] as the molecule, how does the “herbicidal action against weed plants (visual scoring of plant damage or emergence damage)” value [1] read?
A: very good herbidical action

Q: What about the “herbicidal action against weed plants (effect scored visually)” value [2] of the same molecule?
A: very good herbicidal action

Q: Which “herbicidal action against weed plants (visual scoring of plant damage or emergence damage)” value [1] does the source give for `CCCOc1nn(C(=O)NS(=O)(=O)c2c(I)cccc2C(F)(F)F)c(=O)n1C` [Compound 1.137] here?
A: very good herbidical action

Q: What about the “herbicidal action against weed plants (effect scored visually)” value [2] of the same molecule?
A: very good herbicidal action

Q: What does the source list for `CC(C)Oc1nn(C(=O)NS(=O)(=O)c2cc(C(F)(F)F)ccc2I)c(=O)n1C` [Compound 1.838]?
A: herbicidal action against weed plants (visual scoring of plant damage or emergence damage) [1]: very good herbidical action; herbicidal action against weed plants (effect scored visually) [2]: very good herbicidal action

Q: Which results are given for `CCOc1nn(C(=O)NS(=O)(=O)c2c(OC)ccc(Cl)c2I)c(=O)n1C` [Compound 1.817]?
A: herbicidal action against weed plants (visual scoring of plant damage or emergence damage) [1]: very good herbidical action; herbicidal action against weed plants (effect scored visually) [2]: very good herbicidal action

Q: How did the “herbicidal action against weed plants (visual scoring of plant damage or emergence damage)” value [1] turn out when `COc1nn(C(=O)NS(=O)(=O)c2c(I)cccc2OCC(C)C)c(=O)n1C` [Compound 1.289] was run?
A: very good herbidical action

Q: What about the “herbicidal action against weed plants (effect scored visually)” value [2] of the same molecule?
A: very good herbicidal action

Q: Which “herbicidal action against weed plants (visual scoring of plant damage or emergence damage)” value [1] does the source give for `COc1nn(C(=O)NS(=O)(=O)c2ccc(C)c(F)c2I)c(=O)n1C1CC1` [Compound 1.859] here?
A: very good herbidical action

Q: What about the “herbicidal action against weed plants (effect scored visually)” value [2] of the same molecule?
A: very good herbicidal action

Q: What does the source list for `Cc1cccc(I)c1S(=O)(=O)NC(=O)n1nc(OC(C)C)n(C)c1=O` [Compound 1.040]?
A: herbicidal action against weed plants (visual scoring of plant damage or emergence damage) [1]: very good herbidical action; herbicidal action against weed plants (effect scored visually) [2]: very good herbicidal action

Q: For `CCCOc1cccc(I)c1S(=O)(=O)NC(=O)n1nc(OCCC)n(C2CC2)c1=O` [Compound 1.244], which “herbicidal action against weed plants (visual scoring of plant damage or emergence damage)” value [1] is on record?
A: very good herbidical action

Q: And the “herbicidal action against weed plants (effect scored visually)” value [2]?
A: very good herbicidal action

Q: Which “herbicidal action against weed plants (visual scoring of plant damage or emergence damage)” value [1] does the source give for `CCCOc1nn(C(=O)NS(=O)(=O)c2ccc(F)cc2I)c(=O)n1C` [Compound 1.824] here?
A: very good herbidical action

Q: And the “herbicidal action against weed plants (effect scored visually)” value [2]?
A: very good herbicidal action

Q: What does the source list for `CCCOc1cccc(I)c1S(=O)(=O)NC(=O)n1nc(OCCC)n(C)c1=O` [Compound 1.235]?
A: herbicidal action against weed plants (visual scoring of plant damage or emergence damage) [1]: very good herbidical action; herbicidal action against weed plants (effect scored visually) [2]: very good herbicidal action

Q: For `COc1nn(C(=O)NS(=O)(=O)c2c(I)cccc2OC(C)C(F)(F)F)c(=O)n1C1CC1` (stereo not shown) [Compound 1.529], which “herbicidal action against weed plants (visual scoring of plant damage or emergence damage)” value [1] is on record?
A: very good herbidical action

Q: What about the “herbicidal action against weed plants (effect scored visually)” value [2] of the same molecule?
A: very good herbicidal action

Q: With `CCCCOc1cccc(I)c1S(=O)(=O)NC(=O)n1nc(OC)n(C)c1=O` [Compound 1.273] as the molecule, how does the “herbicidal action against weed plants (visual scoring of plant damage or emergence damage)” value [1] read?
A: very good herbidical action

Q: What about the “herbicidal action against weed plants (effect scored visually)” value [2] of the same molecule?
A: very good herbicidal action

Q: Which “herbicidal action against weed plants (visual scoring of plant damage or emergence damage)” value [1] does the source give for `COc1nn(C(=O)NS(=O)(=O)c2cccc(Cl)c2I)c(=O)n1C` [Compound 1.828] here?
A: very good herbidical action

Q: What about the “herbicidal action against weed plants (effect scored visually)” value [2] of the same molecule?
A: very good herbicidal action
